Measured values reported in patent US7288659B2, “Acylaminothiazole derivatives, their preparation and therapeutic use” (Sanofi-Aventis, priority 2001, dated 2007).

melting point [°C] | SMILES
141 | CCC[C@H](NC(=O)[C@@H](O)c1cc(F)cc(F)c1)C(=O)Nc1ncc(-c2ccccc2COC2CCCCC2)s1 [compound 55, (2S)-N-(5-{2-[(cyclohexyloxy)methyl]phenyl}-1,3-thiazol-2-yl)-2-{[(2S)-2-(3,5-difluorophenyl)-2-hydroxyacetyl]amino}pentanamide]
112 | CCC[C@H](NC(=O)[C@H](O)c1cc(F)cc(F)c1)C(=O)Nc1ncc(-c2ccccc2COC2CCCCC2)s1 [compound 56, (2S)-N-(5-{2-[(cyclohexyloxy)methyl]phenyl}-1,3-thiazol-2-yl)-2-{[(2R)-2-(3,5-difluorophenyl)-2-hydroxyacetyl]amino}pentanamide]
115 | CCC[C@H](NC(=O)[C@@H](O)c1cc(F)cc(F)c1)C(=O)Nc1nc(C)c(-c2ccccc2COC2CCCCC2)s1 [compound 57, (2S)-N-(5-{2-[(cyclohexyloxy)methyl]phenyl}-4-methyl-1,3-thiazol-2-yl)-2-{[(2S)-2-(3,5-difluorophenyl)-2-hydroxyacetyl]amino}pentanamide]
80 | CCC[C@H](NC(=O)Cc1cc(F)cc(F)c1)C(=O)Nc1nc(CC)c(-c2ccccc2COC2CCCCC2)s1 [compound 59, (2S)-N-(5-{2-[(cyclohexyloxy)methyl]phenyl}-4-ethyl-1,3-thiazol-2-yl)-2-{[2-(3,5-difluorophenyl)-acetyl]amino}pentanamide]
77 | CCC[C@H](NC(=O)C(=O)c1cc(F)cc(F)c1)C(=O)Nc1ncc(-c2ccccc2COC2CCCCC2)s1 [compound 60, (2S)-N-(5-{2-[(cyclohexyloxy)methyl]phenyl}-1,3-thiazol-2-yl)-2-{[2-(3,5-difluorophenyl)-2-oxoacetyl]-amino}pentanamide]
70 | CCc1nc(NC(=O)[C@H](C)NC(=O)Cc2cc(F)cc(F)c2)sc1-c1ccccc1COC1CCCCC1 [compound 62, (2S)-N-(5-{2-[(cyclohexyloxy)methyl]phenyl}-4-ethyl-1,3-thiazol-2-yl)-2-{[2-(3,5-difluorophenyl)-acetyl]amino}propanamide]
74 | CCC[C@H](NC(=O)Cc1cc(F)cc(F)c1)C(=O)Nc1nc(C(C)C)c(-c2ccccc2COC2CCCCC2)s1 [compound 63, (2S)-N-(5-{2-[(cyclohexyloxy)methyl]phenyl}-4-isopropyl-1,3-thiazol-2-yl)-2-{[2-(3,5-difluorophenyl)-acetyl]amino}pentanamide]
139 | CCC[C@H](NC(=O)C(F)c1cc(F)cc(F)c1)C(=O)Nc1ncc(-c2ccccc2COC2CCCCC2)s1 (stereo partly drawn) [compound 64, (2S)-N-(5-{2-[(cyclohexyloxy)methyl]phenyl}-1,3-thiazol-2-yl)-2-{[2-(3,5-difluorophenyl)-2-fluoroacetyl]amino}pentanamide]
91 | CCC[C@H](NC(=O)C(F)c1cc(F)cc(F)c1)C(=O)Nc1ncc(-c2ccccc2COC2CCCCC2)s1 (stereo partly drawn) [compound 67, (2S)-N-(5-{2-[(cyclohexyloxy)methyl]phenyl}-1,3-thiazol-2-yl)-2-{[2-(3,5-difluorophenyl)-2-fluoroacetyl]amino}pentanamide]
79 | CC[C@H](NC(=O)Cc1cc(F)cc(F)c1)C(=O)Nc1nc(C)c(-c2ccccc2COC(C)C)s1 [compound 69, (2S)-2-{[2-(3,5-difluorophenyl)acetyl]amino}-N-{5-[2-(isopropoxymethyl)phenyl]-4-methyl-1,3-thiazol-2-yl}butanamide]
73 | CC[C@H](NC(=O)Cc1cc(F)cc(F)c1)C(=O)Nc1ncc(-c2ccccc2COC(C)C)s1 [compound 70, (2S)-2-{[2-(3,5-difluorophenyl)acetyl]amino}-N-{5-[2-(isopropoxymethyl)phenyl]-1,3-thiazol-2-yl}butanamide]
66.6 | CCC[C@H](NC(=O)Cc1cc(F)cc(F)c1)C(=O)Nc1nc(C)c(-c2ccccc2COC(C)C)s1 [compound 71, (2S)-2-{[2-(3,5-difluorophenyl)acetyl]amino}-N-{5-[2-(isopropoxymethyl)phenyl]-4-methyl-1,3-thiazol-2-yl}pentanamide]
74 | CCC[C@H](NC(=O)Cc1cc(F)cc(F)c1)C(=O)Nc1ncc(-c2ccccc2COC(C)C)s1 [compound 72, (2S)-2-{[2-(3,5-difluorophenyl)acetyl]amino}-N-{5-[2-(isopropoxymethyl)phenyl]-1,3-thiazol-2-yl}pentanamide]
149 | COC1CCC(OCc2ccccc2-c2cnc(NC(=O)[C@H](C)NC(=O)Cc3cc(F)cc(F)c3)s2)CC1 (stereo partly drawn) [compound 73, (2S)-2-{[2-(3,5-difluorophenyl)acetyl]amino}-N-[5-(2-{[(4-methoxycyclohexyl)oxy]methyl}phenyl]-1,3-thiazol-2-yl}propanamide]
68 | CCC[C@H](NC(=O)C(F)(F)c1cc(F)cc(F)c1)C(=O)Nc1ncc(-c2ccccc2COC2CCCCC2)s1 [compound 74, (2S)-N-(5-{2-[(cyclohexyloxy)methyl]phenyl}-1,3-thiazol-2-yl)-2-{[2-(3,5-difluorophenyl)-2,2-difluoroacetyl]amino}pentanamide]
